Results taken from patent publication US7169772B2, “4,4-difluoro-1,2,3,4-tetrahydro-5H-1-benzazepine derivatives or salts thereof” (Astellas Pharma Inc., priority 2001, dated 2007).

Tests used:
human V2 receptor = biological target: T1, human V2 receptor (Homo sapiens, UniProt P30518); assay: V2 receptor binding assay; details: human V2 expression CHO cell membrane, [3H]-Vasopressin 0.5 nM, 25° C., 60 minutes; read-out: Ki (affinity for V2 receptor)
T1 construct: expressed in transfected cells; host or cells: CHO cells
Experimental: (1) V2 Receptor Binding Assay
A human V2 expression CHO cell membrane sample was prepared in accordance with a method of Tahara, et al. (British Journal of Pharmacology. Vol 125, p. 1463–1470, 1998). 2 μg of the membrane sample were incubated in a total of 250 μl of 50 mM tris-chloric acid buffer solution (pH=7.4) containing 10 mM MgCl2 and 0.1% bovine serum albumin (BSA), together with [^3H]-Arginine-Vasopressin (hereinafter referred to as ‘[^3H]-Vasopressin’) (0.5 nM, Specific activity=75 Ci mmol) and a test compound (10^−10˜10^−5 M) at 25° C. for 60 minutes. Then, free [^3H]-Vasopressin and receptor binding [^3H]-Vasopressin were separated using a cell harvester, and the receptor binding [^3H]-Vasopressin was adsorbed on a Unifilter Plate GF/B glass filter, sufficiently dried, and then mixed with a microplate scintillation cocktail. The amount of receptor binding [^3H]-Vasopressin was measured using a top count, and inhibition rate was calculated by the following equation. Inhibition Rate(%)=100−(C1−B1)/(C0−B1)×100 • C1: the amount of [^3H]-Vasopressin bound to the membrane sample, when the receptor membrane sample is treated in the coexistence of a test compound of known concentration and [^3H]-Vasopressin • C0: the amount of [^3H]-Vasopressin bound to the membrane sample, when the receptor membrane sample is treated with [^3H]-Vasopressin, in the absence of a test compound • B1: the amount of [^3H]-Vasopressin bound to the membrane sample, when the receptor membrane sample is treated in the coexistence of an excess amount of Vasopressin (10^−6 M) and [^3H]-Vasopressin
Dissociation Coefficient (Ki)=IC50/(1+[L]/Kd) • [L]: the concentration of [^3H]-Vasopressin • Kd: dissociation coefficient of [3H]-Vasopressin for the receptor, calculated from saturation binding assay

CYP2C9 = CYP2C9 (Homo sapiens, UniProt P11712); assay: Cytochrome P450 (2C9) enzyme inhibition effects; assay type: biochemical; details: substrate 7-methoxy-4-(trifluoromethyl)coumarin, 37° C., 45 minutes
Experimental: (§1) C0: fluorescence intensity in the presence of an enzyme and a substrate, in the absence of a test compound • B1: fluorescence intensity of a blank well (5) Cytochrome P450 (2C9) Enzyme Inhibition Effects
(§2) The assay was carried out in accordance with a method of Crespi, et al. (Analytical Biochemistry, 248, 188–190, 1997).
A 96 well plate was employed, and 7-methoxy-4-(trifluoromethyl)coumarin (7.5×10^−5 M) as a substrate, a test compound (4.9×10^−8˜5×10^−5M), and an enzyme (10^−8 M) were incubated in a total of 200 μl of a 200 mM phosphate buffer solution (pH=7.4) comprising 8.2 μM NADP+, 0.41 mM glucose-6-phosphate, 0.41 mM MgCl2, and 0.4 Units/ml glucose-6-phosphate dehydrogenase, at 37° C. for 45 minutes. Then, 0.5 M aqueous solution of 2-amino-2-hydroxymethyl-1,3-propanediol containing 80% acetonitrile was added thereto to stop the reaction, and fluorescence intensity was measured with a fluorescent plate reader (excited wavelength: 409 nm, fluorescent wavelength: 530 nm). […]

CYP3A4 = CYP3A4 (Homo sapiens, UniProt P08684); assay: Cytochrome P450 (3A4) enzyme inhibition assay; assay type: biochemical; details: substrate 7-benzyloxy-4-(trifluoromethyl)coumarin, 37° C., 30 minutes
Experimental: (4) Cytochrome P450 (3A4) Enzyme Inhibition Assay
as §2
A 96 well plate was employed, and 7-benzyloxy-4-(trifluoromethyl)coumarin (5×10^−5 M) as a substrate, a test compound (4.9×10^−8˜5×10^−5 M), and an enzyme (5×10^−9 M) were incubated in a total of 200 μl of a 200 mM phosphate buffer solution (pH=7.4) comprising 8.2 μM NADP+, 0.41 mM glucose-6-phosphate, 0.41 mM MgCl2, and 0.4 Units/ml glucose-6-phosphate dehydrogenase, at 37° C. for 30 minutes. Then, 0.5 M aqueous solution of 2-amino-2-hydroxymethyl-1,3-propanediol containing 80% acetonitrile was added thereto to stop the reaction, and fluorescence intensity was measured with a fluorescent plate reader (excited wavelength: 409 nm, fluorescent wavelength: 530 nm). […] Inhibition Rate (%)=100−(C1−B1)/(C0−B1)×100 • C1: fluorescence intensity in the presence of a known concentration of test compound, enzyme, and a substrate
as §1

Wistar male rats = assay: Antidiuresis assay (oral administration); assay type: in vivo; details: Rattus norvegicus, read-out: ED50 (amount required for decreasing urinary excretion rate by 50%), 30 ml/kg water load after 15 minutes, urine until 4 hours after water load
Experimental: (3) Antidiuresis Assay (Oral Administration)
For the assay, Wistar male rats (10˜12 weeks of age) were employed. The test compound was orally administrated, and after 15 minutes, 30 ml/kg of distilled water were orally administrated (water load). Until 4 hours after the water load, urine was collected in a metabolism cage, and the amount of urine when the water load was set to 100% was calculated as the urinary excretion rate. […]

Chain of CYP3A4 (P08684 whole entry): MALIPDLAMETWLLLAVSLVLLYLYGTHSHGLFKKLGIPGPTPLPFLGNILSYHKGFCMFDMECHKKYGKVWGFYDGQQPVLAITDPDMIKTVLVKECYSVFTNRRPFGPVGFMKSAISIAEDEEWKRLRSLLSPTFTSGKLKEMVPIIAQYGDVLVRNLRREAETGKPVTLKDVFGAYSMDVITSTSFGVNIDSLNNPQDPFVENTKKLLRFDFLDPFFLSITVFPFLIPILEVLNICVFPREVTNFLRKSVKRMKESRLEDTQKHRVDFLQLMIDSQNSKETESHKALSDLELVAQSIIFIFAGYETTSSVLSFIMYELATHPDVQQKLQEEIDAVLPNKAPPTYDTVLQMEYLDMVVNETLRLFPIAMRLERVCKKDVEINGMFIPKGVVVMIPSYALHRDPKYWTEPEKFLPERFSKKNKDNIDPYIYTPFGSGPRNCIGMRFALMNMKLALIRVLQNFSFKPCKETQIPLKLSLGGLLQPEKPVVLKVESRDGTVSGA
T1 sequence (P30518 whole entry): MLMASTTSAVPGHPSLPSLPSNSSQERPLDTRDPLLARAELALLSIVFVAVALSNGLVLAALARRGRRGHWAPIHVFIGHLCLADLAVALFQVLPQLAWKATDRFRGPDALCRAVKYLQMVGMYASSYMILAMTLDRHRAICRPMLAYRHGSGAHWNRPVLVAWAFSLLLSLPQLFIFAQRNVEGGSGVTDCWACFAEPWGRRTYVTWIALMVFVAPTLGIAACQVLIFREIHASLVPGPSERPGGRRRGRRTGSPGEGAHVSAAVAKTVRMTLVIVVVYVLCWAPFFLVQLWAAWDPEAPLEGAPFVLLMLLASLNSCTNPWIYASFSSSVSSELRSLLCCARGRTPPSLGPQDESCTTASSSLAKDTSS
Chain of CYP2C9 (P11712 whole entry): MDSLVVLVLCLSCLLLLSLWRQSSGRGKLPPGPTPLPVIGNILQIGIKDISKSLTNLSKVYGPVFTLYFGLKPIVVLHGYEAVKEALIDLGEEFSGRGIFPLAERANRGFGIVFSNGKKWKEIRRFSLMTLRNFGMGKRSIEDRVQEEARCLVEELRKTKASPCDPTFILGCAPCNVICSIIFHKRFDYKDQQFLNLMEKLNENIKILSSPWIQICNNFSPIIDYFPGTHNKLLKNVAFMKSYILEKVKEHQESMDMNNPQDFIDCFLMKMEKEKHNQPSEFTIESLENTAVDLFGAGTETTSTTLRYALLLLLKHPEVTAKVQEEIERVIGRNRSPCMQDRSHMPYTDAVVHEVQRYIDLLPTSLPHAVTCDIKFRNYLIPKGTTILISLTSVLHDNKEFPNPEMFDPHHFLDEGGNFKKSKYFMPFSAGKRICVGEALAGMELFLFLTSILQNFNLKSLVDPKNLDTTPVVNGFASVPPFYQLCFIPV

Row | Compound | Ki (human V2 receptor) [nM] | IC50 (CYP2C9) [nM] | IC50 (CYP3A4) [nM] | ED50 (Wistar male rats) [mg/kg]
1 | Cc1ccn(-c2ccc(C(=O)N3CCC(F)(F)/C(=C\C(=O)N4CCCC(C(N)=O)C4)c4ccccc43)c(Cl)c2)n1 (stereo not shown) [Example 58, 1-((2Z)-2-{1-[2-chloro-4-(3-methyl-1H-pyrazol-1-yl)benzoyl]-4,4-difluoro-1,2,3,4-tetrahydro-5H-1-benzazepin-5-ylidene}acetyl)piperidine-3-carboxamide] | 4.8 |  |  | 
2 | Cc1ccn(-c2ccc(C(=O)N3CCC(F)(F)/C(=C\C(N)=O)c4ccccc43)c(Cl)c2)n1 [Example 8, (2Z)-2-{1-[2-chloro-4-(3-methyl-1H-pyrazol-1-yl)benzoyl]-4,4-difluoro-1,2,3,4-tetrahydro-5H-benzazepine}acetamide] |  | 13000 | > 20000 | 
3 | CC(C)NC(=O)C[C@H]1CCCN(C(=O)c2ccc(N3CCCC3)cc2Cl)c2ccccc21 [Control, 2-[(5R)-1-(2-chloro-4-pyrrolidin-1-ylbenzoyl)-2,3,4,5-tetrahydro-1H-1-benzazepin-5-yl]-N-isopropyacetamide, reference compound] | 68 | < 91 | < 91 | 
4 | Cc1ccn(-c2ccc(C(=O)N3CCC(F)(F)/C(=C\C(=O)Nc4cccc(CO)c4)c4ccccc43)c(Cl)c2)n1 [Example 76, (2Z)-2-{1-[2-chloro-4-(3-methyl-1H-pyrazol-1-yl)benzoyl]-4,4-difluoro-1,2,3,4-tetrahydro-5H-1-benzazepin-5-ylidene}-N-[3-(hydroxymethyl)phenyl]acetamide] | 2.2 |  |  | 0.22
5 | Cc1ccn(-c2ccc(C(=O)N3CCC(F)(F)/C(=C\C(=O)Nc4ccc(C(N)=O)cc4)c4ccccc43)c(Cl)c2)n1 [Example 72, 4-[((2Z)-2-{1-[2-chloro-4-(3-methyl-1H-pyrazol-1-yl)benzoyl]-4,4-difluoro-1,2,3,4-tetrahydro-5H-1-benzazepin-5-ylidene}acetyl)amino]benzamide] | 3.7 |  |  | 
6 | Cc1cccc(CNC(=O)/C=C2/c3ccccc3N(C(=O)c3ccc(-n4ccc(C)n4)cc3Cl)CCC2(F)F)n1 [Example 119, (2Z)-2-{1-[2-chloro-4-(3-methyl 1H-pyrazol-1-yl)benzoyl]-4,4-difluoro-1,2,3,4-tetrahydro-5H-1-benzazepin-5-ylidene}-N-[(6-methylpyridin-2-yl)methyl]acetamide] | 5.6 |  |  | 
7 | NC(=O)CNC(=O)/C=C1/c2ccccc2N(C(=O)c2ccc(N3CCCC3)cc2Cl)CCC1(F)F [Example 220, (2Z)-N-(2-amino-2-oxoethyl)-2-[1-(2-chloro-4-pyrrolidin-1-ylbenzoyl)-4,4-difluoro-1,2,3,4-tetrahydro-5H-1-benzazepin-5-ylidene]acetamide] |  | 11000 | 10000 | 
8 | Cc1cccc(NC(=O)/C=C2/c3ccccc3N(C(=O)c3ccc(-n4ccc(C)n4)cc3Cl)CCC2(F)F)c1 [Example 74, (2Z)-2-{1-[2-chloro-4-(3-methyl-1H-pyrazol-1-yl)benzoyl]-4,4-difluoro-1,2,3,4-tetrahydro-5H-1-benzazepin-5-ylidene}-N-(3-methylphenyl)acetamide] | 5.6 |  |  | 
